Reference: patent publication US6706528B2, “Fluorescent magnesium indicators” (The United States of America as represented by the …, priority 2000, dated 2004)

Tests used:
[1] = UV absorption spectrum of the free indicator; format: physicochemical; conditions: buffer pH 7.2
Experimental: The emission and excitation fluorescence spectra of the compounds of the present invention (e.g., (1a-3a), (9a), (11a-13a), (15a), and (18a-24a)) were recorded using a 0.5 to 1.0 μM solution of the chelator buffered at pH 7.2. The solutions also contained 120 mM KCl and 20 mM NaCl to mimic the ionic strength of the intracellular medium. These solutions were titrated with stock solutions of MgCl2 containing an equimolar concentration of the 4-oxo-4H-quinolizine carboxylic acids to cancel out dilution effects during the titration. After each titration step, the emission and excitation fluorescence spectra were recorded. The apparent dissociation constants of indicators for Mg^2+ were determined from the fluorescence spectra as originally described by Grynkiewicz et al. (Grynkiewicz et al., J. Biol. Chem. 260: 3440-3450 [1985]).
In the following experiments, tetrahydrofuran (THF) was dried and distilled over sodium/benzophenone (Nalbenzophenone) prior to use. Dimethylformamide (DMF) was dried over molecular sieves (4 Å). Ethyl acetate, hexane, diethyl ether and all commercially available chemicals were used as received. After extractive work-up, the combined organic phases were dried on magnesium sulfate. Water used in the spectrophotometric and fluorescence experiments was filtered through a hydro PICOPURE® 2 filter. Thin layer chromatography was carried out on Sigma-Aldrich TLC plates (silica gel on polyester). Chromatographic purifications were done by flash chromatography using Merck Silica Gel, grade 9385, 230-400 mesh, 60 Å. Melting points were measured on a Fisher-Johns melting point apparatus and are shown uncorrected herein. ^1H-NMR spectra and ^13C-NMR spectra were recorded on a Nicolet NT 360 MHz NMR Spectrometer and a Varian UNITY plus 400 MHz NMR Spectrometer. Chemical shifts are reported in parts per million (δ), using tetramethylsilane (TMS) as the internal standard. The signals are expressed as an s (singlet), d (doublet), t (triplet), q (quartet), m (multiplet), or br (broad). High cresolution mass spectra were obtained from the Washington University Resources for Biomedical and Bio-organic Mass Spectrometry on samples which were chromatographically pure. Compounds (9a) and (21a) were analyzed by FABMS using NBA Li matrix. UV absorption spectra were recorded with a Bechman DU 650 Spectrophotometer using Fisherbrand™ semimicro quartz cells (Fisher Scientific). Fluorescence measurements were recorded with an Aminco-Bowman® Series 2 Spectrometer using quartz fluorimeter cuvets from Sigma. pH measurements were done using a Mettler Toledo MP 255 pH meter.
The buffered solutions used in fluorescence/Mg^2+ titration experiments contained 120 mM KCl, 20 mM NaCl, and 15 mM TRIS buffer, and were brought to pH=7.2 with concentrated HCl. A stock solution of 2 mg of the indicator in 5 ml buffer was prepared. To record a UV spectrum, the stock solutions were diluted 40 times (25 μl in 975 μl). For the fluorescence titration experiments, 25 μl of the stock solution was diluted 100 times with 2475 μl buffer. Emission fluorescence and excitation fluorescence spectra were recorded using the appropriate excitation wavelength derived from the UV spectrum of the free indicator. To 2475 μl of a MgCl2 solution (100 mM, 250 mM or 500 mM (2a)), 25 μl of the stock solution of the indicator was added, to cancel out dilution during the titration. To the solution of the free indicator, increasing amounts of the MgCl2/indicator solution were added. After each titration step, fluorescence emission and fluorescence excitation spectra were recorded.

[2] = fluorescent response to increasing Ca2+ concentrations; format: binding; conditions: for fluorescent response to increasing Ca^2+ concentrations: Ca^2+ up to 100 mM
[3] = fluorescence/pH titration to determine pKa; format: physicochemical; conditions: 10 mM MOPS buffer, from pH 4.29, read-out: pKa of the carboxylate group on the ring system
Experimental: However, it is not intended that the present invention be so limited nor is it necessary to understand the mechanism in order to practice the present invention. Thus, the indicators are present in the deprotonated form and available for complexation at physiological pH.
To determine the pKa of 1-bromo-8-(1,2-dicarboxyethyl)-4-oxo-4H-quinolizine-3-carboxylic acid (21a), 250 μl of the stock solution of 1-bromo-8-(1,2-dicarboxyethyl)-4-oxo-4H-quinolizine-3-carboxylic acid was added to 25 ml of 10 mM MOPS, pH 4.29. The fluorescence emission spectrum was recorded. A 0.1 M NaOH solution containing an equal concentration of 1-bromo-8-(1,2-dicarboxyethyl)-4-oxo-4H-quinolizine-3-carboxylic acid (21a), was added dropwise. After each pH increase of 0.2, the emission spectrum was recorded. At pH 6.31, no change of the fluorescence emission was observed.

Row | A, absorption maximum of the free indicator [1] [nm] | melting point [°C] | Compound | further results
1 | 386 | 245 to 247 | O=C(O)c1ccc2cc(-c3cccc4ccccc34)ccn2c1=O [Compound 23a, 8-(naphth-1-yl)-4-oxo-4H-quinolizine-3-carboxylic acid] | 
2 | 403 | > 250 | O=C(O)c1cc(Br)c2ccccn2c1=O [Compound 9a, 1-bromo-4-oxo-4H-quinolizine-3-carboxylic acid] | fluorescent response to increasing Ca^2+ concentrations [2]: no fluorescent response
3 | 380 |  | O=C(O)Cc1ccn2c(=O)c(C(=O)O)ccc2c1 [Compound 19a, 8-(carboxymethyl)-4-oxo-4H-quinolizine-3-carboxylic acid] | 
4 | 406 | > 250 | COc1ccc(-c2ccn3c(=O)c(C(=O)O)ccc3c2)cc1 [Compound 22a, 8-(4-methoxyphenyl)-4-oxo-4H-quinolizine-3-carboxylic acid] | 
5 | 410 |  | 1-[N,N-di(carboxymethyl)]-4-oxo-4H-quinolizine-3-carboxylic acid [Compound 11a] | 
6 | 400 |  | O=C(O)C(=Cc1cc(C(=O)O)c(=O)n2ccccc12)C(=O)O [Compound 12a, 1-(2,2-dicarboxyvinyl)-4-oxo-4H-quinolizine-3-carboxylic acid] | 
7 | 395 |  | O=C(O)c1cc(CC(C(=O)O)C(=O)O)c2ccccn2c1=O [Compound 13a, 1-(2,2-dicarboxyethyl)-4-oxo-4H-quinolizine-3-carboxylic acid] | 
8 | 391 | > 250 | O=C(O)c1ccc2cc(Cl)ccn2c1=O [Compound 2a, 4-oxo-8-chloro-4H-quinolizine-3-carboxylic acid] | 
9 | 407 | > 250 | O=C(O)CC(C(=O)O)c1ccn2c(=O)c(C(=O)O)cc(Br)c2c1 (stereo not drawn) [Compound 21a, 1-bromo-8-(1,2-dicarboxyethyl)-4-oxo-4H-quinolizine-3-carboxylic acid] | fluorescent response to increasing Ca^2+ concentrations [2]: no fluorescent response; pKa [3]: 5.6
10 | 370 |  | 8-[3-(N,N-di(carboxymethyl)phenoxy]-4-oxo-4H-quinolizine-3-carboxylic acid [Compound 18a] | 
11 | 440 |  | O=C(O)c1ccc2cc(-c3cc4ccccc4o3)ccn2c1=O [Compound 24a, 8-benzo[b]furyl-4-oxo-4H-quinolizine-3-carboxylic acid] | 
12 | 385 |  | O=C(O)c1ccc2ccccn2c1=O [Compound 1a, 4-oxo-4H-quinolizine-3-carboxylic acid] | effect of Ca^2+ on the fluorescence emission ([2]; Ca^2+ levels in the nanomolar to submicromolar range): do not affect the fluorescence emission
13 | 410 |  | O=C(O)c1ccc2ccc3ccccc3n2c1=O [Compound 3a, [6,7]benzo-4-oxo-4H-quinolizine-3-carboxylic acid] | 
14 | 390 |  | O=C(O)CC(C(=O)O)c1ccn2c(=O)c(C(=O)O)ccc2c1 (stereo not drawn) [Compound 20a, 8-(1,2-dicarboxyethyl)-4-oxo-4H-quinolizine-3-carboxylic acid] | 
15 | 385 |  | Nc1ccn2c(=O)c(C(=O)O)ccc2c1 [Compound 15a, 8-amino-4-oxo-4H-quinolizine-3-carboxylic acid] | 
